For assay [1], the system named is panel of nine different human cancer cell lines. Kind of assay: Cytostatic activity, panel of nine human cancer cell lines. Type of assay: cell-based. To be noted: all nine tested cell lines, read-out: IC50 (range over all tested cell lines). As for the experimental part: To gain insight into cytotoxicity of newly synthesized compounds 4a–f and 5a–f, their cytostatic activity was evaluated in vitro against a panel of nine different human cancer cell lines, representing various solid tumor types including pancreatic adenocarcinoma (Capan-1), chronic myeloid leukemia (Hap1), colorectal carcinoma (HCT-116), lung carcinoma (NCI-H460), acute lymphoblastic leukemia (DND-41), acute myeloid leukemia (HL-60), chronic myeloid leukemia (K-562), multiple myeloma (MM.1S) and non-Hodgkin lymphoma (Z-138).
Cytostatic activity was evaluated in vitro on nine different types of human tumor cell lines: Capan-1, Hap1, HCT-116, and NCI-H460, as well as hematological tumors such as DND-41, HL-60, K-562, MM.1S and Z-138 as described previously. All human tumor cell lines were acquired from the American Type Culture Collection (ATCC, Manassas, VA, USA), except for the DND-41 cell line which was purchased from the Deutsche Sammlung von Mikroorganismen und Zellkulturen (DSMZ Leibniz-Institut, Braunschweig, Germany) and the Hap1 cell line which was purchased from Horizon Discovery (Waterbeach, UK). […] The plates were incubated and monitored at 37 °C for 72 h in an IncuCyte (Essen BioScience Inc., Ann Arbor, MI, USA) for real-time imaging. […]

Assay [2] has as its system panel of bacteria, Mycobacterium strains and fungi. Nature of the assay: Antimicrobial screening, panel of bacteria, Mycobacterium strains and fungi. Type of assay: cell-based. To be noted: S. aureus, S. pneumoniae, A. baumannii and C. albicans ATCC 90028.

Broadly, the IC50 is the concentration needed to halve the response being measured. With `COc1cc(NC(C)CCCNC(=O)/C=C/C(=O)Nc2cccc(F)c2)c2ncccc2c1` (centres unmarked) [Compound 4a, (2E)-N-(3-Fluorophenyl)-N′-{4-[(6-methoxyquinolin-8-yl)amino]pentyl}but-2-enediamide], in assay [1], the 50% inhibitory concentration (IC50) fell in the range of 5.7 to 31.2 µM.
On to `COc1cc(NC(C)CCCNC(=O)/C=C/C(=O)Nc2ccc(Cl)cc2)c2ncccc2c1` (centres unmarked) [Compound 4d, (2E)-N-(4-Chlorophenyl)-N′-{4-[(6-methoxyquinolin-8-yl)amino]pentyl}but-2-enediamide], for which the “MIC values (range over strains)” value in assay [2] lay within 6.1 to 12.5 µg/mL.

The values are drawn from publication PMC6100582 (Molecules : A Journal of Synthetic Chemistry and Natural …, 2018).
